Like-named read-outs stand apart in the source and are kept apart here.
Experiments:
[1] = for 2-methylserotonin remaining: 200 ng spike-in
[2] = tested on: rat hepatocytes; conditions: cited from earlier work
[3] = Human studies with pea and orange fiber snack prototypes: fecal N-methylserotonin and serotonin levels; format: in vivo; conditions: in vivo
Description: Human studies with pea and orange fiber snack prototypes. Two separate open-label, single group assignment studies were performed involving members of the Missouri Adolescent Female Twin Study (MOAFTS) cohort who were age 31-45 years at the time of enrollment. The first study with the pea fiber snack was performed between April and August 2017, while the second study with the orange fiber snack was conducted between August and December 2017. All participants provided written informed consent and the studies were approved by the Washington University Institutional Review Board (IRB ID #201611122). (ClinicalTrials.gov NCT03078283).
The design of the two studies were identical except for the fiber snack supplement used and the number of participants in each study. Individuals who were pregnant or trying to get pregnant, had inflammatory bowel disease, gastrointestinal cancer, hepatitis, HIV, renal failure, or allergies to dairy, eggs, fish, crustacean shellfish, tree nuts, sesame seeds, peanuts, wheat, gluten, soybeans, celery, or mustard were excluded from the study. In Study 1, four twin pairs were concordant for obesity (BMI>30 kg/m2) while five pairs were discordant with one member being obese and the other non-obese (n=18 participants, […] (mean±SD); Table S8B). Study 2 involved 24 participants: 12 dizygotic twin pairs [37±2.9 years (mean±SD)], nine of whom had participated in the pea fiber study; for these nine pairs, the interval between cessation of pea fiber snack consumption and initiation of orange fiber consumption ranged from 50 to 106 days [84+26 days (mean±SD)]. Participants consumed their normal, unrestricted diet for the first two weeks of the study (pre-intervention phase). At the beginning of week three, they supplemented their diets with one 35 g fiber snack serving a day for one week, then two 35 g snack servings a day the following week, and thereafter, three 35 g snacks per day for four weeks (weeks 5-8) at breakfast, lunch and dinner. No attempt was made to adjust the diets of participants other than supplementation with the fiber snack. Snack prototypes were manufactured by Mondeldz International, Inc. (see Table S8A for their composition), which participants received in weekly shipments from the study center. The pea fiber snacks were in the form of rotary biscuits (6.7 g total fiber/35 g snack) or extruded bars (8.1 g fiber/35 g snack) with participants having the option to alternate between them. The orange fiber snacks were all in the form of extruded bars (10.2 g total fiber/35 g snack). Compliance was monitored throughout by the study coordinator through weekly phone calls. The primary outcomes for each study were the effects of the respective prototypes on gut microbial community structure and function.
Fecal samples were collected by participants in small medically approved collection containers. Each fecal sample was frozen immediately at −20° C. and temporarily stored in dedicated freezers provided to participants at the beginning of the study. Within 12-48 hours after collection, all samples were shipped, via overnight delivery, in an insulated container containing frozen gel packs, to a biospecimen repository located in Washington University in St. Louis and overseen by one of the authors (A.C.H.). Once received, samples were stored at −80° C. until processing for LC-QqQ-MS analysis of N-methylserotonin levels and culture-independent characterization of ASV and CAZyme gene abundances.
Measurement of fecal N-methylserotonin levels—Each fecal sample was homogenized with a porcelain mortar (4 L) and pestle while submerged in liquid nitrogen; multiple 500 mg aliquots of the pulverized frozen material were stored at −80° C. N-methylserotonin was quantified using the same protocol that was employed for mouse fecal samples (as described herein elsewhere).
N-methylserotonin levels and microbiome CAZyme gene abundances in humans consuming fiber snack prototypes. […]

[4] = In vitro screening of bacterial strains for N-methylserotonin releasing activity from orange fiber; format: cell-based, human gut bacterial strains; conditions: for N-methylserotonin released, MEGA Medium 2.0 72 hrs / N-methylserotonin released, TYG medium 8 hrs / N-methylserotonin released, TYG medium 24 hrs / N-methylserotonin released, TYG medium 48 hrs / N-methylserotonin released, TYG medium 72 hrs / N-methylserotonin released, Wilkins-Chalgren 72 hrs: 5 mg/ml orange fiber, normalized to 10^6 microbes, n=3
Description: In vitro screening of bacterial strains for N-methylserotonin releasing activity. A given bacterial strain was grown in monoculture at 37° C. in TYG medium in an anaerobic chamber (atmosphere; 75% N2, 20% CO2 and 5% H2) to stationary phase. An aliquot was then added to 10 mL of fresh TYG medium with or without 50 mg of orange fiber that had been sterilized by gamma irradiation (30-50 KGy); the mixture was incubated under anaerobic conditions without shaking for 72 hours. A 200 μL aliquot was then removed for targeted LC-QqQ-MS measurement of N-methylserotonin levels; another aliquot was used to define the number of colony-forming units so that levels of the analyte were expressed per 10^6 cells. An identical protocol was used to compare the amount of N-methylserotonin released when two other rich media, MEGA medium 2.0 and Wilkins-Chalgren anaerobe broth (Thermo-Fisher), were used in lieu of TYG. All incubations were performed in triplicate for each condition. […]
Bacterial strains capable of mining of N-methylserotonin from orange fiber in vitro. Given that detection of N-methylserotonin was dependent on colonization with the bacterial consortium and consumption of orange fiber, it was next investigated which community members were responsible for its appearance. Each of the 14 community members was grown in monoculture to stationary phase in TYG medium; 10^5 cells of each organism were incubated in 10 mL of a 5 mg/mL suspension of orange fiber for 8, 24, 48, 72 and 168 hours. N-methylserotonin was quantified using targeted LC-QqQ-MS. […] At this time point, Bacteroides ovatus strain TSDC 17.2 and a strain of Parabacteroides distasonis yielded similar quantities of product (29±1 and 24±2 ng N-methylserotonin/10^6 cells, respectively). In contrast, the 12 other strains yielded<1.5 ng/10^6 cells—an amount that was not appreciably higher than background levels (triplicate incubations/organism; FIG. 1C). […]

[5] = Release of N-methylserotonin from orange fiber by commercially available glycoside hydrolase preparations; format: biochemical
Description: Enzymatic screening of citrus & plant samples. All enzymatic assays are carried out using a total volume of 10 ml in water, 50 mg of plant fiber material tested and 700 active units of the same cellulase enzyme mixture (Sigma) as described herein. Samples were processed based on their condition, divided as follows. Citrus fibers sourced from various citrus types, described in Table S9 as “Ground,” are added directly to the enzymatic assay, while citrus fibers described as either “Granule” or “Whole” are first manually pulverized into a fine powder via mortar and pestle. The commercially available fiber source is classified as “Ground” if it was already processed into fine powder, or otherwise small enough granules in which individual pieces cannot be manually picked up via forceps. The commercially available fiber source is classified as “Granule” or “Whole” if individual fragments or pieces of the fiber is readily discernable, where “Granule” are applied to visibly uniform samples and “Whole” applied to all other samples. […]
Identifying genes involved in release of N-methylserotonin from orange fiber. […] When orange fiber (50 mg) was subjected to repeated rounds of extraction with methanol, small quantities of N-methylserotonin were released after each round (31 ng after two rounds; 171 ng in total after 15 rounds; Table S4F). […]

[6] = Control experiments of bacterial N-methylserotonin release (heat-killed cells, conditioned media, lysates); format: cell-based, human gut bacterial strains
Description: Experiments seeking to test the necessity of having live bacteria to extract N-methylserotonin were carried out by first incubating monocultures of B. ovatus, B. finegoldii, […] conditions to stationary phase. The stationary phase culture was then treated at 70° C. for 1 hour. […]
Experiments using conditioned media were carried out by taking monocultures of B. ovatus, B. finegoldii, P. distasonis, […], centrifuging the culture for […]
Experiments using bacterial lysates were carried out by bead-beating of bacterial cells, collected by centrifugation from 10 mL stationary phase TYG cultures for 4 minutes at room temperature; 500 μL of the […] To ensure sterility in these experiments, aliquots of the heat-treated cells, centrifuged conditioned media, or bacterial lysate were cultured in TYG medium for 7 days and subsequently plated on TYG-agar; the results confirmed the absence of colony forming units. Assays were performed in triplicate for each experimental condition.
These experiments indicate that mining requires intact viable cells.

Q: Which results are given for Cc1[nH]c2ccc(O)cc2c1CCN [2-methylserotonin, reference compound]?
A: 2-methylserotonin remaining ([1]; Extraction 1): 190 ng; 2-methylserotonin remaining ([1]; Extraction 2): 10 ng; 2-methylserotonin remaining ([1]; Extraction 3): 0 ng; 2-methylserotonin remaining ([1]; Extraction 4): 0 ng; 2-methylserotonin remaining ([1]; Extraction 5): 0 ng; 2-methylserotonin remaining ([1]; Extraction 6): 0 ng; 2-methylserotonin remaining ([1]; Extraction 7): 0 ng; 2-methylserotonin remaining ([1]; Extraction 8): 0 ng; 2-methylserotonin remaining ([1]; Extraction 9): 0 ng; 2-methylserotonin remaining ([1]; Extraction 10): 0 ng; 2-methylserotonin remaining ([1]; Extraction 11): 0 ng; 2-methylserotonin remaining ([1]; Extraction 12): 0 ng; 2-methylserotonin remaining ([1]; Extraction 13): 0 ng; 2-methylserotonin remaining ([1]; Extraction 14): 0 ng; 2-methylserotonin remaining ([1]; Extraction 15): 0 ng; 2-methylserotonin removed by the first cycle of extraction ([1]; methanol, spike-in added to orange fiber): 95%

Q: With CC(N)Cc1c[nH]c2ccc(O)cc12 (stereo not drawn) [alpha-methylserotonin] as the compound, how does the glycogen synthesis [2] read?
A: able to increase glycogen synthesis

Q: Which fecal serotonin levels ([3]; female, human) does the source give for NCCc1c[nH]c2ccc(O)cc12 [serotonin] here?
A: 7 ± 5.7 µM

Q: And the “fecal serotonin levels as % of that of N-methylserotonin” value [3]?
A: 0-8.6%

Q: What about the glycogen synthesis [2] of the same compound?
A: decreases glycogen synthesis

Q: Which “N-methylserotonin released, MEGA Medium 2.0 72 hrs” value [4] does the source give for Bacteroides cellulosilyticus here?
A: 1.0 ± 0.2 ng

Q: What about the “N-methylserotonin released, TYG medium 8 hrs” value [4] of the same compound?
A: 0.3 ± 0.1 ng

Q: And the “N-methylserotonin released, TYG medium 24 hrs” value [4]?
A: 0.3 ± 0.1 ng

Q: What about the “N-methylserotonin released, TYG medium 48 hrs” value [4] of the same compound?
A: 0.6 ± 0.1 ng

Q: What about the “N-methylserotonin released, TYG medium 72 hrs” value [4] of the same compound?
A: 0.9 ± 0.2 ng

Q: What about the “N-methylserotonin released, Wilkins-Chalgren 72 hrs” value [4] of the same compound?
A: 1 ± 0.2 ng

Q: For Cellulase, which “N-methylserotonin levels at 72 h” value ([5]; 50 mg orange fiber incubated with enzyme) is on record?
A: 2727.9 ± 25.5 ng

Q: And the “total yield of N-methylserotonin” value ([5]; orange fiber incubated with enzyme preparation)?
A: 2728±26 ng/50 mg orange fiber

Q: For Parabacteroides distasonis, which “N-methylserotonin levels, Cellular extract” value ([6]; Mega 2.0 (+orange fiber)) is on record?
A: 0.3 ± 0.1 ng

Q: And the “N-methylserotonin levels, Conditioned media” value ([6]; Mega 2.0 (+orange fiber))?
A: 0.3 ± 0.1 ng

Q: What about the “N-methylserotonin levels, Heat inactivated” value ([6]; Mega 2.0 (+orange fiber)) of the same compound?
A: 0.4 ± 0.1 ng

Q: What about the “N-methylserotonin levels, Cellular extract” value ([6]; Mega 2.0, no orange fiber) of the same compound?
A: ND (ND (not detected)=N-methylserotonin levels below 0.02 ng)

Q: What about the “N-methylserotonin levels, Conditioned media” value ([6]; Mega 2.0, no orange fiber) of the same compound?
A: ND (ND (not detected)=N-methylserotonin levels below 0.02 ng)

Q: And the “N-methylserotonin levels, Heat inactivated” value ([6]; Mega 2.0, no orange fiber)?
A: ND (ND (not detected)=N-methylserotonin levels below 0.02 ng)

Q: And the “N-methylserotonin levels, Cellular extract” value ([6]; TYG (+orange fiber))?
A: 0.2 ± 0.1 ng

Q: What about the “N-methylserotonin levels, Conditioned media” value ([6]; TYG (+orange fiber)) of the same compound?
A: 0.3 ± 0.1 ng

Q: What about the “N-methylserotonin levels, Heat inactivated” value ([6]; TYG (+orange fiber)) of the same compound?
A: 0.3 ± 0.1 ng

Q: What about the “N-methylserotonin levels, Cellular extract” value ([6]; TYG, no orange fiber) of the same compound?
A: ND (ND (not detected)=N-methylserotonin levels below 0.02 ng)

Q: And the “N-methylserotonin levels, Conditioned media” value ([6]; TYG, no orange fiber)?
A: ND (ND (not detected)=N-methylserotonin levels below 0.02 ng)

Q: What about the “N-methylserotonin levels, Heat inactivated” value ([6]; TYG, no orange fiber) of the same compound?
A: ND (ND (not detected)=N-methylserotonin levels below 0.02 ng)

Q: What about the “N-methylserotonin levels with heat-killed cells, lysates or conditioned medium” value ([6]; fresh TYG with orange fiber, 72 hours) of the same compound?
A: failed to yield levels of N-methylserotonin above background

Q: What about the “N-methylserotonin released, MEGA Medium 2.0 72 hrs” value [4] of the same compound?
A: 24.8 ± 2.1 ng

Q: And the “N-methylserotonin released, TYG medium 8 hrs” value [4]?
A: 0.3 ± 0.1 ng

Q: What about the “N-methylserotonin released, TYG medium 24 hrs” value [4] of the same compound?
A: 1.0 ± 0.1 ng

Q: And the “N-methylserotonin released, TYG medium 48 hrs” value [4]?
A: 7.5 ± 0.7 ng

Q: And the “N-methylserotonin released, TYG medium 72 hrs” value [4]?
A: 24.3 ± 2.4 ng

Q: What about the “N-methylserotonin released, Wilkins-Chalgren 72 hrs” value [4] of the same compound?
A: 22.1 ± 0.7 ng

Q: What about the “N-methylserotonin yielded at the 72-hour time point” value ([4]; TYG, 5 mg/mL orange fiber, triplicate) of the same compound?
A: 24±2 ng N-methylserotonin/10^6 cells

Source: patent publication US20250345370A1, “MICROBIAL LIBERATION OF N-METHYLSEROTONIN FROM ORANGE FIBER” (Washington University, priority 2022, published 2025)
